{"source": "paper PMC7721796", "about": "“Molecular basis of regio- and stereo-specificity in biosynthesis of bacterial heterodimeric diketopiperazines” (Nature Communications, 2020)", "key": {"NasbB": {"molecular_target": "T1, NasbB (Streptomyces sp., UniProt A0A7T3QX21)", "T1 construct": "codon-optimised gene in pMS1, Mycobacterium smegmatis mc2 155", "T1 sequence (A0A7T3QX21 1-422)": "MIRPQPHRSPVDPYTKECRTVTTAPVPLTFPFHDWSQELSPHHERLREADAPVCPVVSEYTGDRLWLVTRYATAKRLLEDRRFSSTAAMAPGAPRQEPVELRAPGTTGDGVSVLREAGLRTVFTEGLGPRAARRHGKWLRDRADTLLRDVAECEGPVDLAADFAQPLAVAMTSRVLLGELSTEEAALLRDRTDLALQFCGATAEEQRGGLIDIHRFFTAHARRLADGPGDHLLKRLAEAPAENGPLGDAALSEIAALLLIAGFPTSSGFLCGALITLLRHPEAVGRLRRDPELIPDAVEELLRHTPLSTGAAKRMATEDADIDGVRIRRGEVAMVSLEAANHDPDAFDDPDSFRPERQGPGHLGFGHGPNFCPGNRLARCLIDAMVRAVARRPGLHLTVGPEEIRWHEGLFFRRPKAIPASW", "type": "biochemical", "conditions": "[…] substrate, […] P450, spinach Fd/FdR, NADPH recycling, pH […] °C, […] h; product NAS-B"}, "NasF5053 (NascF5053) [1]": {"molecular_target": "T2, NasF5053 (NascF5053) (Streptomyces sp. NRRL F-5053, UniProt A0A8I3B027)", "T2 construct": "codon-optimised gene in pET28a, E. coli BL21(DE3); heme protein", "T2 sequence (A0A8I3B027 entry or part of it)": "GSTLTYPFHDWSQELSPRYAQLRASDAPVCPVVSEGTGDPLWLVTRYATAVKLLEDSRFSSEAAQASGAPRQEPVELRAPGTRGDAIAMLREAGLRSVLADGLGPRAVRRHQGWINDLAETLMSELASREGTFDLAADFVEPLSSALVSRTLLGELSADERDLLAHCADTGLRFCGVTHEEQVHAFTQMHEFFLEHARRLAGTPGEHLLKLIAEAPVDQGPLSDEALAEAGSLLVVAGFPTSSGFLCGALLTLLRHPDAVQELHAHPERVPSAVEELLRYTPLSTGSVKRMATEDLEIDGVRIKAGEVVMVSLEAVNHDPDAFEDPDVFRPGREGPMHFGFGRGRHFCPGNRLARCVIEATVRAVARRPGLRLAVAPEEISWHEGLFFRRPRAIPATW", "assay": "UV-Vis difference spectra, Soret shift, hyperbolic fit", "conditions": "read-out: binding constant"}, "NasF5053 (NascF5053) [2]": {"molecular_target": "T3, NasF5053 (NascF5053) (Streptomyces sp. NRRL F-5053, UniProt A0A8I3B027, A86G/Q65I)", "T3 construct": "codon-optimised gene in pET28a, E. coli BL21(DE3); heme protein", "T3 sequence (A0A8I3B027 1-398 Q65I/A86G)": "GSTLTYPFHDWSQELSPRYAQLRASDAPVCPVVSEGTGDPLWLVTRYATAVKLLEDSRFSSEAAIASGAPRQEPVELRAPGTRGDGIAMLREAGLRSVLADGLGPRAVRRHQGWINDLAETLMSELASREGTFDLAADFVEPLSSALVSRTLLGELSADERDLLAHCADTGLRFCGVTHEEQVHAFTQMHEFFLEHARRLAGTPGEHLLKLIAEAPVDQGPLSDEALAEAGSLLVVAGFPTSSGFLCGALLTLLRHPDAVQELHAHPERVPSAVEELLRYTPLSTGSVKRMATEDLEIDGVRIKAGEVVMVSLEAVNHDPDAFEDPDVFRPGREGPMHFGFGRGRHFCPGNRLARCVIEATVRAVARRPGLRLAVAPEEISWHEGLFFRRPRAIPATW", "assay": "UV-Vis difference spectra, Soret shift, hyperbolic fit", "conditions": "read-out: binding constant"}, "NasF5053 (NascF5053) [3]": {"molecular_target": "T4, NasF5053 (NascF5053) (Streptomyces sp. NRRL F-5053, UniProt A0A8I3B027, S284A/V288A)", "T4 construct": "codon-optimised gene in pET28a, E. coli BL21(DE3); heme protein", "T4 sequence (A0A8I3B027 1-398 S284A/V288A)": "T3 sequence (A0A8I3B027 1-398 Q65I/A86G) with I65Q, G86A, S284A, V288A", "assay": "UV-Vis difference spectra, Soret shift, hyperbolic fit", "conditions": "read-out: binding constant"}, "NasS1868": {"molecular_target": "T5, NasS1868 (Streptomyces sp. NRRL S-1868, UniProt A0ACD6BAV5)", "T5 construct": "codon-optimised gene in pMS1, Mycobacterium smegmatis mc2 155", "T5 sequence (A0ACD6BAV5 1-401)": "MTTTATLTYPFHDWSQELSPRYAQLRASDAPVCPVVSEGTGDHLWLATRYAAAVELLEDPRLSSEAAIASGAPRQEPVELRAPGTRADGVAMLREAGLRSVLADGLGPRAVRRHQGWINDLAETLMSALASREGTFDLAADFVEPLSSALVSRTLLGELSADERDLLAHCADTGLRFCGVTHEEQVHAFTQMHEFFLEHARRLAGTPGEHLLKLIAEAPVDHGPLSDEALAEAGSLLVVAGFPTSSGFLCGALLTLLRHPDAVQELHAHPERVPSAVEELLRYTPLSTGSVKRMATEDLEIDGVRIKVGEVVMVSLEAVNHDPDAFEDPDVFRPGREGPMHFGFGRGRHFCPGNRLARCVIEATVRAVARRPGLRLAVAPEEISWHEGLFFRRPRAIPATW", "assay": "product formation by UHPLC-MS", "type": "biochemical", "conditions": "1 mM substrate, 0.1 µM P450, spinach Fd/FdR, NADPH recycling, pH 7.5, 4 °C, 24 h; product aspergilazine A"}}, "note": "Positions count from the first letter of the chain named."}
{"smiles": "O=C1N[C@@H](Cc2c[nH]c3ccccc23)C(=O)N2CCC[C@@H]12", "note": "[cWL-PL]", "values": [{"measurement": "product formation by UHPLC-MS", "setting": "NasbB", "result": "NasbB was confirmed to efficiently dimerize the cWL-PL into NAS-B"}, {"measurement": "Kd", "setting": "NasF5053 (NascF5053) [1]", "result": "11.6 ± 2.1", "unit": "µM"}, {"measurement": "Kd", "setting": "NasF5053 (NascF5053) [2]", "result": "25.6 ± 1", "unit": "µM"}, {"measurement": "Kd", "setting": "NasF5053 (NascF5053) [3]", "result": "4.81 ± 0.26", "unit": "µM"}, {"measurement": "product formation by UHPLC-MS", "setting": "NasS1868", "result": "NasS1868 can convert cWL-PL into Asp-A"}]}
